The results in this text go back to patent US11834451B2 (priority 2021, dated 2023).

One data set has as its system RD cells. Conditions: human.
The subject of another data set is EV-D68. The experiment in a line: microbe, parasite or virus in culture. To be noted: Enterovirus D, EVD68, RD. It is filed as cell-based, enterovirus D68 (EV-D68).
Another data set is described as follows: in vitro. Conditions: human.
In another data set the test system is Vero cells. Conditions: African green monkey.
The subject of another data set is EV-A71. The data set is described as follows: microbe, parasite or virus in culture. Type of data set: cell-based, enterovirus A71 (EV-A71). Conditions: Enterovirus A, EVA71, RD.
The subject of a further data set is CVB3 Nancy virus. The data set is described as follows: microbe, parasite or virus in culture. Type of data set: cell-based, coxsackievirus B3 (CVB3). Conditions: Enterovirus B, CVB3, Vero, read-out: EC50, Anti-CVB3 in Vero cells.
A further data set has as its system EV-D68 US/MO/14-18947. The data set is described as follows: microbe, parasite or virus in culture. It is filed as cell-based, enterovirus D68 (EV-D68). Conditions: for EC50: Enterovirus D, EVD68, read-out: EC50, viral replication in neuronal cells (immunofluorescence, anti-VP1).
The next data set relates to EV-D68, EV-A71, and CVB3. The experiment in a line: organism not typed. It is filed as cell-based. To be noted: for EC50: RD, read-out: EC50 values range against all EV-D68 and EV-A71 strains tested.
Setting [1] is: read-out: EC50, Anti-EV-D68 US/KY/14-18953 in RD cells.
[2] abbreviates: CC50, in RD cells (Anti-EV-A71).
[3] abbreviates: read-out: EC50, Anti-EV-A71 Tainan/4643/1998 in RD cells.
Where [4] appears, read: read-out: EC50, EV-D68 US/IL/14-18952 (Clade B2).
[5] abbreviates: read-out: EC50, EV-D68 US/IL/14-18956 (Clade B2).
Where [6] appears, read: read-out: EC50, EV-D68 US/KY/14-18953 (Clade D).
The mark [7] stands for this setting: read-out: EC50, EV-D68 US/MO/14-18947 (Clade B1).
[8] abbreviates: read-out: EC50, EV-D68 US/MO/14-18949 (Clade B1).
Setting [9] is: read-out: EC50, EV-A71 Tainan/4643/1998.
Setting [10] is: read-out: EC50, EV-A71 USA/CT/2016-19519.

Like-named read-outs stand apart in the source and are kept apart here.

Turning to `Cc1cc(C(=O)NCCN)c2cnn(C(C)C)c2n1` [Compound 12e, N-(2-aminoethyl)-6-methyl-1-(propan-2-yl)-1H-pyrazolo[3,4-b]pyridine-4-carboxamide], the CC50 with RD cells, in the data set “in vitro” (setting [2]) and in the data set on Vero cells was greater than 300 µM throughout. Also, the EC50 turned out to be 4700 nM in the data set with EV-D68 (setting [1]), 700 nM in the data set with EV-A71 (setting [3]) and 3800 nM with CVB3 Nancy virus.
For `Cc1cc(CCCOc2c(C)cc(-c3noc(C(F)(F)F)n3)cc2C)on1` [pleconaril, reference compound], the “viral replication (VP1 fluorescence signal)” value in the data set on EV-D68 US/MO/14-18947 (at 50 μM) is listed as “completely abolished viral replication”.
On to `CC(CN(C)C)NC(=O)c1cc(C(C)C)nc2c1cnn2C(C)C` (stereo not drawn) [Compound 10c, N-[1-(dimethylamino)propan-2-yl]-1,6-bis(propan-2-yl)-1H-pyrazolo[3,4-b]pyridine-4-carboxamide], for which the CC50 in the data set on RD cells is greater than 100 µM; in “in vitro” (setting [2]) it was 70.3 µM. In addition, the EC50 in the data set on EV-D68 (setting [1]) was 100 nM; in the data set on EV-A71 (setting [3]), 1000 nM; in the data set with CVB3 Nancy virus, 100 nM.
Take `CNCCNC(=O)c1cc(C2CC2)nc2c1cnn2C(C)C` [Compound 7h, 6-cyclopropyl-N-[2-(methylamino)ethyl]-1-(propan-2-yl)-1H-pyrazolo[3,4-b]pyridine-4-carboxamide]: the EC50 is 60 to 300 nM with EV-D68, EV-A71, and CVB3; 200 nM in the data set with EV-D68 (setting [1]); 200 nM in the data set with EV-D68 (setting [4]); 200 nM in the data set with EV-D68 (setting [5]); 200 nM in the data set on EV-D68 (setting [6]); 200 nM in the data set with EV-D68 (setting [7]). In addition, the EC50 with EV-D68 (setting [8]) was found to be 200 nM; in the data set on EV-A71 (setting [3]), 200 nM; in the data set on EV-A71 (read-out: EC50, EV-A71 A71 MP4) it was 300 nM; in the data set with EV-A71 (setting [9]), 200 nM; in the data set with EV-A71 (setting [10]), 100 nM; in the data set on CVB3 Nancy virus, 200 nM. In addition, the EC50 in the data set with EV-D68 US/MO/14-18947 came to 70 nM. In addition, the CC50 in “in vitro” (CC50 (EV-A71 Tainan/4643/1998)), in the data set “in vitro” (CC50 (EV-A71 USA/CT/2016-19519)), in the data set “in vitro” (CC50 (EV-D68 US/IL/14-18952 row group)), in “in vitro” (CC50 (EV-D68 US/IL/14-18956 row group)), in “in vitro” (CC50 (EV-D68 US/KY/14-18953 row group)) and in “in vitro” (CC50 (EV-D68 US/MO/14-18947 row group)) was 236 µM throughout. The CC50 in the data set “in vitro” (CC50 (EV-D68 US/MO/14-18949 row group)) was 236 µM; in the data set “in vitro” (setting [2]), 236 µM; in the data set “in vitro” (CC50, in RD cells (Anti-EV-D68)) it was 236 µM; in the data set on Vero cells, greater than 100 µM.
As for `CCn1ncc2c(C(=O)NCCN(C)C)cc(C3CC3)nc21` [Compound 16, 6-cyclopropyl-N-[2-(dimethylamino)ethyl]-1-ethyl-1H-pyrazolo[3,4-b]pyridine-4-carboxamide], in the data set on EV-D68, EV-A71, and CVB3, the “EC50 values in words (summary across viruses)” value is listed as “single-digit micromolar range”. Besides, the EC50 with EV-D68 (setting [1]) came out at 1700 nM; in the data set on EV-A71 (setting [3]), 1200 nM; in the data set with CVB3 Nancy virus, 1800 nM. Also, the CC50 with Vero cells is greater than 300 µM.
With `Cc1cc(C(=O)NC2CN(C)C2)c2cnn(C(C)C)c2n1` [Compound 12c, 6-methyl-N-(1-methylazetidin-3-yl)-1-(propan-2-yl)-1H-pyrazolo[3,4-b]pyridine-4-carboxamide], the CC50 in the data set on RD cells, in the data set “in vitro” (setting [2]) and with Vero cells was greater than 300 µM in each case. The EC50 was 11300 nM in the data set on EV-D68 (setting [1]), 7300 nM with EV-A71 (setting [3]) and 3800 nM in the data set with CVB3 Nancy virus.
Take `CNCCNC(=O)c1cc(C(C)C)nc2c1cnn2C(C)C` [Compound 10d, N-[2-(methylamino)ethyl]-1,6-bis(propan-2-yl)-1H-pyrazolo[3,4-b]pyridine-4-carboxamide]: the CC50 with RD cells and in “in vitro” (setting [2]) was greater than 100 µM in each case. Moreover, the EC50 was found to be 400 nM in the data set on EV-D68 (setting [1]), 100 nM in the data set with EV-A71 (setting [3]) and 300 nM in the data set with CVB3 Nancy virus.
In the data set on RD cells, `CCn1ncc2c(C(=O)NCCN(C)C)cc(C)nc21` [Compound 15a, N-[2-(dimethylamino)ethyl]-1-ethyl-6-methyl-1H-pyrazolo[3,4-b]pyridine-4-carboxamide] had a CC50 greater than 300 µM. Besides, in the data set with EV-D68 (setting [1]), the EC50 turned out to be 18300 nM.
As to `CN(C)CCNC(=O)c1cc(C2CC2)nc2c1cnn2C` [Compound 17, 6-cyclopropyl-N-[2-(dimethylamino)ethyl]-1-methyl-1H-pyrazolo[3,4-b]pyridine-4-carboxamide], the CC50 with RD cells is greater than 300 µM.
In the data set on RD cells, `CC(C)c1cc(C(=O)NCCO)c2cnn(C(C)C)c2n1` [Compound 10b, N-(2-hydroxyethyl)-1,6-bis(propan-2-yl)-1H-pyrazolo[3,4-b]pyridine-4-carboxamide] yielded a CC50 greater than 100 µM.
Consider `CNCCNC(=O)c1cc(C)nc2c1cnn2C(C)C` [Compound 12d, 6-methyl-N-(methylamino)ethyl-1-(propan-2-yl)-1H-pyrazolo[3,4-b]pyridine-4-carboxamide], for which the CC50 with RD cells, in the data set “in vitro” (setting [2]) and with Vero cells was greater than 300 µM each time. Moreover, the EC50 in the data set with EV-D68 (setting [1]) turned out to be 2300 nM; with EV-A71 (setting [3]), 500 nM; in the data set with CVB3 Nancy virus it was 1400 nM.
With `Cc1cc(C(=O)NC2CCN(C)C2)c2cnn(C(C)C)c2n1` (stereo not drawn) [Compound 12b, 6-methyl-N-(1-methylpyrrolidin-3-yl)-1-(propan-2-yl)-1H-pyrazolo[3,4-b]pyridine-4-carboxamide], the CC50 with RD cells, in the data set “in vitro” (setting [2]) and in the data set with Vero cells was greater than 300 µM each time. Moreover, the EC50 was 1800 nM in the data set with EV-D68 (setting [1]), 500 nM in the data set with EV-A71 (setting [3]) and 800 nM in the data set on CVB3 Nancy virus.
In turn, `CCn1ncc2c(C(=O)NCCNC)cc(C)nc21` [Compound 15b, 1-ethyl-6-methyl-N-[2-(methylamino)ethyl]-1H-pyrazolo[3,4-b]pyridine-4-carboxamide] had a CC50 with RD cells greater than 300 µM. Further, the EC50 with EV-D68 (setting [1]) was 58400 nM; in the data set with EV-A71 (setting [3]), greater than 20000 nM.
Regarding `CC(C)c1cc(C(=O)NCCN(C)C)c2cnn(C(C)C)c2n1` [Compound 10a, N-[2-(dimethylamino)ethyl]-1,6-bis(propan-2-yl)-1H-pyrazolo[3,4-b]pyridine-4-carboxamide], the EC50 with EV-D68, EV-A71, and CVB3 is 60 to 300 nM; in the data set on EV-D68 (setting [1]), 100 nM; in the data set on EV-D68 (setting [4]), 90 nM; in the data set with EV-D68 (setting [5]), 70 nM; in the data set with EV-D68 (setting [6]), 100 nM; in the data set on EV-D68 (setting [7]), 70 nM. In addition, the EC50 in the data set with EV-D68 (setting [8]) came out at 80 nM; in the data set with EV-A71 (setting [3]), 100 nM; in the data set on EV-A71 (read-out: EC50, EV-A71 A71 MP4) it was 200 nM; in the data set on EV-A71 (setting [9]) it was 200 nM; in the data set on EV-A71 (setting [10]) it was 60 nM; in the data set with CVB3 Nancy virus it was 40 nM. The EC50 with EV-D68 US/MO/14-18947 turned out to be 30 nM. The same compound registered a CC50 in the data set on Vero cells greater than 300 µM.
Regarding `Cc1cc(C(=O)NCCN(C)C)c2cnn(C(C)C)c2n1` [Compound 12a, N-[2-(dimethylamino)ethyl]-6-methyl-1-(propan-2-yl)-1H-pyrazolo[3,4-b]pyridine-4-carboxamide], the EC50 in the data set on EV-D68 (setting [1]) worked out at 400 nM; in the data set on EV-A71 (setting [3]), 100 nM; in the data set on CVB3 Nancy virus, 200 nM. The compound also showed a CC50 in the data set with Vero cells greater than 300 µM.
`CC(CN(C)C)NC(=O)c1cc(C2CC2)nc2c1cnn2C(C)C` (stereo not drawn) [Compound 7f, 6-cyclopropyl-N-[1-(dimethylamino)propan-2-yl]-1-(propan-2-yl)-1H-pyrazolo[3,4-b]pyridine-4-carboxamide]: the values for the EC50 with EV-D68 (setting [1]), with EV-A71 (setting [3]) and in the data set with CVB3 Nancy virus were 100 nM, 100 nM and 40 nM, respectively. For the same compound, the CC50 in “in vitro” (setting [2]) is 72.6 µM; in the data set on Vero cells, greater than 300 µM.
